Ends that are not written are not given here.
What was measured:
Dbl = experiment: mant-GTP fluorescence kinetics specificity assay, RhoA/Dbl; type: biochemical; conditions: peptide 20 μM, 1 μM RhoA
Method: (§1) Figures represent the comparison of TRIPE32G and TRIPT16M/L17S inhibition efficiency on different GTPase/RhoGEF systems, using 1 μM GTPase and 0.5 μM GEF as follows:
(§2) In each assay, the peptides were used at a concentration of 20 μM, corresponding to a 40 fold molar excess of inhibitor versus GEF. All fluorescence kinetics assays were performed using 1 μM mant-GTP. Results are expressed as Relative Fluorescence Units (RFU) versus time. The reaction performed in the absence of GEF reflects the spontaneous exchange activity of the GTPase.
(§3) Radioactive [3H]-GDP dissociation assays were performed as described (Schmidt et al., 2002). […] Inhibition efficiency is expressed as the ratio between [3H]-GDP-bound RhoA at 15 and 0 min. Apparent inhibition constants (Kiapp) of TRIP-like peptides were determined from kobs values obtained at increasing peptide concentrations using the above fluorescence nucleotide exchange assay. Kiapp was calculated from the hyperbolic fit of kobs values as a function of the inhibitor concentration as described (Zeeh et al., 2006). TRIP-like peptide specificity was assayed using mant-GTP fluorescence kinetics (λex=360 nm, λem=460 nm) in a FLX800 Microplate Fluorescence Reader (BioTek Instruments). […] The exchange reaction was initiated by addition of 1 μM RhoA or RhoG and monitored for 10 min.

Tgat = experiment: mant-GTP fluorescence kinetics specificity assay, RhoA/Tgat; type: biochemical; conditions: peptide 20 μM, 0.5 μM Tgat, 1 μM RhoA, 1 μM mant-GTP
Method: as §1, §2, §3

[1] = system: Tgat-mediated RhoA activation; experiment: RhoA activation assay (GST-RBD pull-down) in NIH3T3 cells stably expressing Tgat; type: cell-based; conditions: NIH3T3-Tgat cells transfected with GFP-tagged peptide
Method: The RhoA activation in NIH3T3-Tgat cells stably transfected with GFP, GFP-TRIPE32G or GFPTRIP T16M/L17S was assayed by the GST-RBD-pulldown assay as described in FIG. 2A.
The level of GTP-bound RhoA was measured by a GST pulldown assay as described (Schmidt et al., 2002). Briefly, cell lysates were incubated with glutathione beads coated with the recombinant Rho-binding domain (RBD) of the RhoA specific effector Rhotekin (Cytoskeleton Inc.).

p63RhoGEF = biological target: T1, p63RhoGEF (Homo sapiens, UniProt Q86VW2); experiment: mant-GTP fluorescence kinetics specificity assay, RhoA/p63RhoGEF; type: biochemical; conditions: peptide 20 μM, 0.5 μM GEF, 1 μM RhoA
T1 construct: GST-p63RhoGEF (DH domain) and GST-RhoG were purified as described previously; GST (N); made in house
Method: as §1, §2, §3

p115RhoGEF = biological target: T2, p115RhoGEF (Homo sapiens, UniProt Q92888); experiment: mant-GTP fluorescence kinetics specificity assay, RhoA/p115RhoGEF; type: biochemical; conditions: peptide 20 μM, 0.5 μM GEF, 1 μM RhoA
T2 construct: GST (N); made in house; host or cells: baculovirus system
T2 sequence (Q92888 1-912): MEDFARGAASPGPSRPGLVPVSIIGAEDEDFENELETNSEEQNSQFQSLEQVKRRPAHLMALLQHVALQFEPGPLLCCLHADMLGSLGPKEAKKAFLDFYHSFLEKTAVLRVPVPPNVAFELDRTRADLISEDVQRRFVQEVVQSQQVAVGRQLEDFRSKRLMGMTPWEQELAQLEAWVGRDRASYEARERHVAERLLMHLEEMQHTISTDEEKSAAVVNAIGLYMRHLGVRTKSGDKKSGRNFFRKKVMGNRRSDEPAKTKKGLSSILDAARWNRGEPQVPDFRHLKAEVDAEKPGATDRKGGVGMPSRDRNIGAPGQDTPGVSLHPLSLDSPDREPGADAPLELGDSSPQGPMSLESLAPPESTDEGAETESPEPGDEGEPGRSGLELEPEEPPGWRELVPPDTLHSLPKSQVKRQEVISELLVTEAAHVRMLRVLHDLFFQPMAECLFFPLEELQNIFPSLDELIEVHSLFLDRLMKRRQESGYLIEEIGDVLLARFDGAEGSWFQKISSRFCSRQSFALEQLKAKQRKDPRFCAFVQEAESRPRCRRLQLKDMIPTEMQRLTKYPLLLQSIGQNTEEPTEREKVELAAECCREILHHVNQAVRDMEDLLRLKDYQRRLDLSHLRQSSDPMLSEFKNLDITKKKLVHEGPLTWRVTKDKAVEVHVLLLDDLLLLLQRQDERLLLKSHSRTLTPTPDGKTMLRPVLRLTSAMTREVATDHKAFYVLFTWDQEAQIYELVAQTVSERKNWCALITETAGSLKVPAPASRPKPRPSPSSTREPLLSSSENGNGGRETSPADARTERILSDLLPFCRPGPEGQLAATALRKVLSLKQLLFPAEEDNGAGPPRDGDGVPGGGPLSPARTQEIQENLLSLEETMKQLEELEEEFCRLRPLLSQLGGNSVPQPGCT
Method: as §1, §2, §3

Sequence of Dbl (P10911 495-809 limits assumed): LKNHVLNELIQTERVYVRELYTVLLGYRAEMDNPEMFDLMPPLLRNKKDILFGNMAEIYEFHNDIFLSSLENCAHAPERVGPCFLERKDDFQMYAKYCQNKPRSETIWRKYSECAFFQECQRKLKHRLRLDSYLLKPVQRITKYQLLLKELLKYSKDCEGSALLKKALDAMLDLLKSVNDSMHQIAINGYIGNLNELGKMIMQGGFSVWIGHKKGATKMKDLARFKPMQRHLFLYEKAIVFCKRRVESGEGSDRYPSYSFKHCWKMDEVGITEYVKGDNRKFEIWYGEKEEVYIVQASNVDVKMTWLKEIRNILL
T1 sequence (Q86VW2 160-336 limits assumed): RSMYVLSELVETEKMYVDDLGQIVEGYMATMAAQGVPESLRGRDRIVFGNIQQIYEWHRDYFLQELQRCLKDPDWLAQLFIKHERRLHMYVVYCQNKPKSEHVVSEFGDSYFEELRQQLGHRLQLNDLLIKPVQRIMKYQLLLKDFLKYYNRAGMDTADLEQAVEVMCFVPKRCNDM

effect on exchange activity of p63RhoGEF/RhoA (p63RhoGEF)	effect on exchange activity of p115RhoGEF/RhoA (p115RhoGEF)	Substance	effect on exchange activity of Dbl/RhoA (Dbl)	inhibition of Tgat exchange activity on RhoA (Tgat)	inhibition of Tgat-mediated activation of RhoA in cells [1]
no effect	no effect	GST-TRIPE32G (AREGADGAICGYNLATLVMLGPSERVFCPLCGPCSSDIYELM; cysteine pairing not given here; also: GST fusion)	no effect	fully inhibited	more efficient than TRIPT16M/L17S
no effect	no effect	GST-TRIPT16M/L17S	no effect	fully inhibited	TRIPE32G was more efficient than TRIPT16M/L17S
